In US20240166602A1, “SUBSTITUTED DIARYL COMPOUND AS WELL AS PREPARATION METHOD AND APPLICATION THEREOF” (SHANDONG FIRST MEDICAL UNIV & SHANDONG ACADEMY OF MEDICAL …, priority 2021, published 2024):
Entries after “also recorded” stand apart in the source; their conditions may differ.

Tests used:
Assay type in all cases: cell-based
[1] = test system: human lung cancer (A549) cells; assay: MTT tumor cell growth inhibition, human lung cancer (A549); conditions: Homo sapiens; A549, 48 h culture, MTT method; read-out: IC50 value of target compound against cancer cell proliferation, A549
Description: (§1) Dissolve CHJ compound series with dimethyl sultbxide (DMSO, final concentration 0.4%), and use RPMI-1640 culture medium containing 15% fetal calf serum to prepare 1 mg/mL solution for future use. During drug administration in groups, use the culture medium to dilute it to the concentration needed.
(§2) Cell lines: human lung cancer (A549), Inman ovarian cancer (SKOV3), human melanoma (A375) and human colon cancer (LOVO) cell lines, all purchased from the Cell Bank of the Chinese Academy of Sciences, DMEM containing 15% fetal bovine serum (High Glucose) culture medium, placed in a 37° C., 5% CO2 incubator.
(§3) MTT is an oxidizing yellow dye with the chemical name of 3-(4,5-dimethyl-2-thiazolyl)-2,5-diphenyl-2-H-tetrazoliumbromide tetrazole bromide. The MMT method, also known as the MTT colorimetric method, can test the survival and growth of cells. The method is simple and easily accessible and often used to screet the substance with cytotoxic activity. The basic principle of testing, is that succinodehydrogenase can reduce exogenous MIT so that MTT is reduced to blueviolet crystal Formazan insoluble to water. The crystal deposits in cells. The succinodehydrogenase exists in the mitochondria of living cells, not in the dead cells. Therefore, the chromogenic reaction can only take place in living cells. Then, dissolve the blueviolet crystal Formazan contained in cells with dimethyl sulfoxide (DMSO), and measure its absorbancy with microplate reader so that the count of living cells is reflected indirectly. Within the scope of certain cell count, the amount of blueviolet crystal Formazan formed is positively correlated to the count of living cells.
(§4) Human lung cancer (A549), human ovarian cancer (SKOV3), human melanoma (A375) and human colon cancer (LOVO) ceilsare all adherent. Based on the growth rate of tumor cells, wash the adherent tumor cells in the logarithmic phase and digest them in 0.25% EDTA pancreatic enzyme. Adjust the cell count to 1×10^5/mL and inoculate the cells in 96-pore plate, each pore containing 100 μL. Culture the cells in the 37° C. CO2 incubator, and administer the drug 24 h later. Add pharmaceutical (CJH compound series) of different concentrations to the administration group. Set up 5 dosage groups for each pharmaceutical, respectively 100, 10, 1, 0.1, 0.01 μmol/L. Set up three complex pores for each concentration. Set up blank control, DMSO (0.8%) solvent control and cis-platinum positive control. After 48 h of culture in the 37 ° C. incubator containing 5% CO2, measure the OD value through MTT method and calculate the cell inhibition ratio.
(§5) After 48 h of culture of human lung cancer (A549), human ovarian cancer (SKOV3). human melanoma (A375) and human colon cancer (LOVO) cells, stop it and add 10 μL 0.5% MTT solution to each pore. Place it in the CO2 incubator for 4 h. Remove the liquid from each pore, respectively add 0.2 mL DMSO solution, and oscillate it adequately on the table concentrator under low frequency so that the blueviolet crystal Formazan is dissolved adequately. Place it in the microplate reader and record the OD value at the wavelength of […]. Calculate the average OD value of three parallel pores of different concentrations, and calculate the cell inhibition ratio and IC50 of each tested pharmaceutical under different concentrations based on the average.
(§6) Inhibition ratio (%)=[1-tested sample OD/negative control group OD]×100%.

[2] = test system: human melanoma (A375) cells; assay: MTT tumor cell growth inhibition, human melanoma (A375); conditions: Homo sapiens, A-375; A375, 48 h culture, MTT method; read-out: IC50 value of target compound against cancer cell proliferation, A375
Description: as §1, §2, §3, §4, §5, §6

[3] = test system: human ovarian cancer (SKOV3) cells; assay: MTT tumor cell growth inhibition, human ovarian cancer (SKOV3); conditions: Homo sapiens, SK-OV-3; SKOV3, 48 h culture, MTT method; read-out: IC50 value of target compound against cancer cell proliferation, SKOV3
Description: as §1, §2, §3, §4, §5, §6

[4] = test system: human colon cancer (LOVO) cells; assay: MTT tumor cell growth inhibition, human colon cancer (LOVO); conditions: Homo sapiens, 48 h culture, MTT method, read-out: IC50 value of target compound against cancer cell proliferation, LOVO
Description: as §1, §2, §3, §4, §5, §6

[5] = test system: human lung cancer (A549), human ovarian cancer (SKOV3), human melanoma (A375) and human colon cancer (LOVO) cells; assay: MTT tumor cell growth inhibition, overall comment on the four cell lines; conditions: summary of the IC50 data over A549, SKOV3, A375, LOVO
Description: as §1, §2, §3
as §4, with “After 48 h of culture in the 37 ° C. incubator containing 5% CO2, measure the OD value through MTT method and calculate the cell inhibition ratio.” left out
After 48 h of culture of human lung cancer (A549), human ovarian cancer (SKOV3). human melanoma (A375) and human colon cancer (LOVO) cells, stop it and add 10 μL 0.5% MTT solution to each pore. […] Place it in the microplate reader and record the OD value at the wavelength of […]. […]

IC50 [1] [µM] | IC50 [2] [µM] | IC50 [3] [µM] | IC50 [4] [µM] | Compound | anti-cancer activity, in words [5]
10.56 ± 0.02 | 1.82 ± 1.23 | 21.2 ± 1.08 | 15.2 ± 1.78 | CCCc1ccc(OCC(O)CN(C)Cc2ccc(OCCN3CCC(C)CC3)c(OC)c2)c(OC)c1 (stereo not shown) [CHJ03011, 1-((3-methoxy-4-(2-(4-methylpiperidin-1-yl)ethoxy)benzyl)(methyl)amino)-3-(2-methoxy-4-propylphenoxy)propan-2-ol] | still effective against cancer
1.88 ± 0.19 | 0.05 ± 0.01 | 1.03 ± 0.24 | 0.69 ± 0.03 | COc1cc(CN(C)CC(O)COc2c(Br)cc(Br)cc2Br)ccc1OCCN1CCC(C)CC1 (stereo not shown) [CHJ04022, 1-((3-methoxy-4-(2-(4-methylpiperidin-1-yl)ethoxy)benzyl)(methy)amino)-3-(2,4,6-tribromnophenoxy)propan-2-ol] | the most active, as active as the cis-platinum in the control group
333.1 ± 2.7 | – | 143 ± 3.1 | 97.1 ± 4.21 | COc1cc(CN(C)CC(O)COc2ccc(NC(C)=O)cc2)ccc1OCCN1CCC(C)CC1 (stereo not shown) [CHJ04061, N-(4-2-hydroxy 3-((3-methoxy-4-(2-(4-methylpiperidin-1-yl)ethoxy)benzyl)(methyl)amino)propoxy)phenypacetamide] | lowered prominently
5.46 ± 1.76 | 1.54 ± 1.34 | 4.21 ± 1.23 | 0.52 ± 0.4 | COc1cc(CN(C)CC(O)COc2c(Br)cc(Br)cc2Br)ccc1OCCN1CCCC1 (stereo not shown) [CHJ04068, 1-((3-methoxy-4-(2-(pyrrolidin-1-yl)ethoxy)henzyl)(methyl)amino)-3-(2,4,6-tribromophenoxy)propan-2-ol] | lowered prominently; also recorded: the most active, as active as the cis-platinum in the control group
